Activity calls are given as the source filed them. No cut-off for these calls is given here.
Key:
[1] = target: T1, Nuclear factor erythroid 2-related factor 2 (Rattus norvegicus) (UniProt O54968); assay: Induction of Nrf2 nuclear translocation in rat PC-12 cells assessed as H2O2-induced GSH level at 5 uM incubated for 1 hr followed by H2O2 stimulation and measured after 5 hrs (reference value: 65.52 +/- 1.44 nM/mg); assay type: cell-based; details: time 6.0 hrs
T1 sequence (whole entry): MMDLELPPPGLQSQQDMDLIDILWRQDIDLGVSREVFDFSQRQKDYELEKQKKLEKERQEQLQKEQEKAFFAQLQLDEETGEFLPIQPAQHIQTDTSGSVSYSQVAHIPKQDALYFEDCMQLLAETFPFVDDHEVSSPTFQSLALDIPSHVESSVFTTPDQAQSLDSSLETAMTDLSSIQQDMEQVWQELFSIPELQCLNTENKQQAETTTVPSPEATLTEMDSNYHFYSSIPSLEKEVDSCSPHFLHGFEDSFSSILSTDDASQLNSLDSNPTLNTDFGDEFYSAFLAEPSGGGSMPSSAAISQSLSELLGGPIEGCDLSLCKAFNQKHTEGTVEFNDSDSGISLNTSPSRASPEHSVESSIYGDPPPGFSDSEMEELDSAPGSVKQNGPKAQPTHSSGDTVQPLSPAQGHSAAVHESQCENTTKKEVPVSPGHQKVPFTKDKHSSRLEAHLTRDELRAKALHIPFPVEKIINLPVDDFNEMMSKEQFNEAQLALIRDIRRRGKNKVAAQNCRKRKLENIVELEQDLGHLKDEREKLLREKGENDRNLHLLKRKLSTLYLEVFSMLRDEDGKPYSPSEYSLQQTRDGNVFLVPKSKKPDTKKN

[2] = target: T1, Nuclear factor erythroid 2-related factor 2 (Rattus norvegicus); assay: Induction of Nrf2 nuclear translocation in rat PC-12 cells assessed as SNP-induced GSH level at 10 uM incubated for 1 hr followed by SNP stimulation and measured after 24 hrs (reference value: 75.78 +/- 1.74 nM/mg); assay type: cell-based; details: time 25.0 hrs
[3] = Metal chelating activity of the compound assessed as Fe2+-compound complex formation incubated for 10 mins in presence of ferrozine by UV-visible spectrophotometry; details: read-out: IC50
[4] = AUC (0 to infinity) in Sprague-Dawley rat at 2 mg/kg, iv measured upto 24 hrs by LC-MS/MS analysis; assay type: ADME, organism-based; set-up: route intravenous, dose 2 mg/kg, time <=24; details: in vivo
[5] = Toxicity in […] assessed as organism death at 400 mg/kg, ip observed for 7 day; assay type: organism-based; details: in vivo
Rattus norvegicus = assay: Neuroprotective activity in Sprague-Dawley rat model of middle cerebral artery occlusion-induced ischemic injury assessed as improvement in behavioral changes at 3 to 30 mg/kg, ip administered TID and measured after 24 hrs; assay type: functional, organism-based; details: dose 3-30 mg/kg
PC-12 [6] = assay: Cytoprotective activity against H2O2-induced cell death in rat PC-12 cells assessed as increase in cell viability incubated for 1 hr followed by H2O2 stimulation and measured after 5 hrs by LDH assay; assay type: functional, cell-based; details: time 6.0 hrs
[7] = target: T1, Nuclear factor erythroid 2-related factor 2 (Rattus norvegicus); assay: Induction of Nrf2 nuclear translocation in rat PC-12 cells assessed as H2O2-induced GSH-px level at 2.5 uM incubated for 1 hr followed by H2O2 stimulation and measured after 5 hrs (reference value: 45.92 +/- 3.64 mU/mg); assay type: cell-based; details: time 6.0 hrs
[8] = target: T1, Nuclear factor erythroid 2-related factor 2 (Rattus norvegicus); assay: Induction of Nrf2 nuclear translocation in rat PC-12 cells assessed as SNP-induced SOD level incubated for 1 hr followed by SNP stimulation and measured after 24 hrs; assay type: cell-based; details: dose 2.5-10 µM, time 25.0 hrs
[9] = Half life in Sprague-Dawley rat at 2 mg/kg, iv measured upto 24 hrs by LC-MS/MS analysis; assay type: ADME, organism-based; details: in vivo
PC-12 [10] = assay: Antioxidant activity in rat PC-12 cells assessed as reduction in H2O2-induced ROS level incubated for 1 hr followed by H2O2 stimulation and measured after 5 hrs by DCFH-DA staining based fluorescence microscopy; assay type: functional, cell-based; details: dose 2.5-10 µM, time 6.0 hrs
[11] = target: T1, Nuclear factor erythroid 2-related factor 2 (Rattus norvegicus); assay: Induction of Nrf2 nuclear translocation in rat PC-12 cells assessed as increase in nuclear Nrf2 level at 1.25 to 5 uM incubated for 24 hrs by Western blot analysis; assay type: cell-based; details: dose 1.25-5 µM
[12] = Clearance in Sprague-Dawley rat at 2 mg/kg, iv measured upto 24 hrs by LC-MS/MS analysis; assay type: ADME, organism-based; details: in vivo
[13] = target: T1, Nuclear factor erythroid 2-related factor 2 (Rattus norvegicus); assay: Induction of Nrf2 nuclear translocation in rat PC-12 cells assessed as H2O2-induced GSH-px level incubated for 1 hr followed by H2O2 stimulation and measured after 5 hrs; assay type: cell-based; details: dose 2.5-10 µM, time 6.0 hrs
[14] = Toxicity in […] assessed as body weight at 400 mg/kg, ip measured on day 1 (reference value: 24.4 to 28.4 g); assay type: organism-based; details: in vivo, 24 h, time 1 day
[15] = Tmax in Sprague-Dawley rat at 20 mg/kg, po measured upto 24 hrs by LC-MS/MS analysis; assay type: ADME, organism-based; details: in vivo
[16] = target: T1, Nuclear factor erythroid 2-related factor 2 (Rattus norvegicus); assay: Induction of Nrf2 nuclear translocation in rat PC-12 cells assessed as H2O2-induced SOD level at 10 uM incubated for 1 hr followed by H2O2 stimulation and measured after 5 hrs (reference value: 29.69 +/- 1.65 U/mg); assay type: cell-based; details: time 6.0 hrs
PC-12 [17] = assay: Cytoprotective activity against SNP-induced cell death in rat PC12 cells assessed as increase in cell viability at 10 uM incubated for 1 hr followed by SNP stimulation and measured after 24 hrs in presence of LY294002 by MTT assay; assay type: functional, cell-based; details: time 25.0 hrs
PC-12 [18] = assay: Cytoprotective activity against SNP-induced cell death in rat PC-12 cells assessed as increase in cell viability at 10 uM incubated for 1 hr followed by SNP stimulation and measured after 24 hrs by MTT assay; assay type: functional; details: time 25 hrs
[19] = target: T1, Nuclear factor erythroid 2-related factor 2 (Rattus norvegicus); assay: Induction of Nrf2 nuclear translocation in rat PC-12 cells assessed as SNP-induced SOD level at 5 uM incubated for 1 hr followed by SNP stimulation and measured after 24 hrs (reference value: 23.74 +/- 2.02 U/mg); assay type: cell-based; details: time 25.0 hrs
PC-12 [20] = assay: Inhibition of SNP-induced apoptosis in rat PC-12 cells assessed as reduction in condensed nuclei incubated for 1 hr followed by SNP stimulation and measured after 24 hrs by Hoechst 33258 staining based fluorescence microscopy; assay type: functional, cell-based; details: dose 2.5-10 µM, time 25.0 hrs
[21] = target: T1, Nuclear factor erythroid 2-related factor 2 (Rattus norvegicus); assay: Induction of Nrf2 nuclear translocation in rat PC-12 cells assessed as H2O2-induced GSH level at 2.5 uM incubated for 1 hr followed by H2O2 stimulation and measured after 5 hrs (reference value: 65.52 +/- 1.44 nM/mg); assay type: cell-based; details: time 6.0 hrs
[22] = Cmax in Sprague-Dawley rat at 20 mg/kg, po measured upto 24 hrs by LC-MS/MS analysis; assay type: ADME, organism-based; set-up: route oral, dose 20 mg/kg, time <=24; details: in vivo
[23] = Oral bioavailability in Sprague-Dawley rat at 20 mg/kg measured upto 24 hrs by LC-MS/MS analysis; assay type: ADME, organism-based; details: in vivo
[24] = Toxicity in […] assessed as body weight at 400 mg/kg, ip measured on day 5 (reference value: 24.4 to 28.4 g); assay type: organism-based; details: in vivo, 120 h, time 5 day
PC-12 [25] = assay: Cytoprotective activity against SNP-induced cell death in rat PC-12 cells assessed as increase in cell viability incubated for 1 hr followed by SNP stimulation and measured after 24 hrs by LDH assay; assay type: functional, cell-based; details: time 25.0 hrs

COc1ccc(-c2nc(-c3ccccc3O)n(-c3ccc(S(N)(=O)=O)cc3)n2)c(O)c1
Activity [1]: 72.5 nM/mg | Activity [2]: 89.2 nM/mg | IC50 [3]: 36.3 µM | AUC(0-inf) [4]: 2330 ng·h/mL | LD50 at 168 h [5]: 400 mg/kg | Activity (Rattus norvegicus): Active | Activity (PC-12 [6]): Dose-dependent effect | Activity [7]: 51 mU/mg | Activity [8]: Dose-dependent effect | half-life [9]: 5.11 h | inhibition (PC-12 [10]): Dose-dependent effect | Activity [11]: Active | clearance [12]: 15 mL/min/kg | Activity [13]: Dose-dependent effect | Activity [14]: 24.3 g | Tmax [15]: 2 h | Activity [16]: 41.2 U/mg | Activity (PC-12 [17]): inactive | Activity (PC-12 [18]): 30% | Activity [19]: 34.9 U/mg | inhibition (PC-12 [20]): Dose-dependent effect | Activity [21]: 70.4 nM/mg | Cmax [22]: 2030 ng/mL | bioavailability [23]: 60.8% | Activity [24]: 24.9 g | Activity (PC-12 [25]): Dose-dependent effect

From ChEMBL document CHEMBL4680194, “Synthesis and biological evaluation of 1,2,4-triazole derivatives as potential neuroprotectant against ischemic brain injury” (Eur J Med Chem, 2020)
